pIC50: −log10 of the molar value.
Assays:
Plasmodium falciparum [1] = assay: Antimicrobial activity against chloroquine-sensitive Plasmodium falciparum 3D7; type: functional, organism-based
Plasmodium falciparum [2] = assay: Antimicrobial activity against Plasmodium falciparum Dd2; type: functional
Plasmodium falciparum [3] = assay: Antimicrobial activity against chloroquine-resistant Plasmodium falciparum K1; type: functional, organism-based
Plasmodium falciparum [4] = assay: Antimicrobial activity against Plasmodium falciparum Cam6 infected in human erythrocytes after 72 hrs by SYBR green I fluorescence-based method; type: functional, organism-based; conditions: Cam6, 72 h
Plasmodium falciparum [5] = assay: Antimicrobial activity against Plasmodium falciparum Thai6 infected in human erythrocytes after 72 hrs by SYBR green I fluorescence-based method; type: functional, organism-based; conditions: Thai6, 72 h
Plasmodium falciparum [6] = assay: Antimicrobial activity against chloroquine/MQ/atrovaquone-resistant Plasmodium falciparum TM90C2B infected in human erythrocytes after 72 hrs by SYBR green I fluorescence-based method; type: functional, organism-based
Plasmodium falciparum [7] = assay: Antimicrobial activity against Mq-resistant Plasmodium falciparum D6 infected in human erythrocytes after 72 hrs by SYBR green I fluorescence-based method; type: functional, organism-based; conditions: D6, 72 h
Plasmodium falciparum [8] = assay: Antimicrobial activity against chloroquine-sensitive Plasmodium falciparum 3D7 infected in human erythrocytes after 72 hrs by SYBR green I fluorescence-based method; type: functional, organism-based; conditions: 3D7, 72 h
Plasmodium falciparum [9] = assay: Antimicrobial activity against chloroquine/SP-resistant Plasmodium falciparum W2 infected in human erythrocytes after 72 hrs by SYBR green I fluorescence-based method; type: functional, organism-based; conditions: W2, 72 h
Plasmodium falciparum [10] = assay: Antimicrobial activity against Plasmodium falciparum 7G8 infected in human erythrocytes after 72 hrs by SYBR green I fluorescence-based method; type: functional, cell-based; conditions: 7G8, 72 h
Plasmodium falciparum [11] = assay: Antimicrobial activity against Plasmodium falciparum Dd2 infected in human erythrocytes after 72 hrs by SYBR green I fluorescence-based method; type: functional, cell-based; conditions: Dd2, 72 h
Plasmodium falciparum [12] = assay: Antimicrobial activity against Plasmodium falciparum D6 infected in human erythrocytes after 72 hrs by SYBR green I fluorescence-based method; type: functional, organism-based; conditions: D6, 72 h
Plasmodium falciparum [13] = assay: Antimicrobial activity against chloroquine-resistant Plasmodium falciparum W2 infected in human erythrocytes assessed as incorporation of [3H]-hypoxanthine by beta counting analysis; type: functional, organism-based
[14] = Inhibition of beta-hematin formation; type: physicochemical

COc1cc(NC(C)CCCNc2ccnc3cc(Cl)ccc23)c2ncccc2c1 (stereo not drawn)
pIC50 (Plasmodium falciparum [1]): 7.10 | pIC50 (Plasmodium falciparum [2]): 7.10 | pIC50 (Plasmodium falciparum [3]): 7.10

CC(C)(N)CNc1ccnc2cc(Cl)ccc12
pIC50 (Plasmodium falciparum [4]): 8.26 | pIC50 (Plasmodium falciparum [5]): 8.26 | pIC50 (Plasmodium falciparum [6]): 8.26 | pIC50 (Plasmodium falciparum [7]): 8.26 | pIC50 (Plasmodium falciparum [8]): 8.26 | pIC50 (Plasmodium falciparum [9]): 8.26

CN(C)C(C)(C)CNc1ccnc2cc(Cl)ccc12
pIC50 (Plasmodium falciparum [4]): 8.26 | pIC50 (Plasmodium falciparum [5]): 8.26 | pIC50 (Plasmodium falciparum [6]): 8.26 | pIC50 (Plasmodium falciparum [7]): 8.26 | pIC50 (Plasmodium falciparum [8]): 8.26 | pIC50 (Plasmodium falciparum [9]): 8.26

CCN(CC)CCNc1c(C)cnc2cc(Cl)ccc12
pIC50 (Plasmodium falciparum [10]): 9.05 | pIC50 (Plasmodium falciparum [11]): 9.05 | pIC50 (Plasmodium falciparum [12]): 9.05

NCCNCCNc1ccnc2cc(Cl)ccc12
pIC50 (Plasmodium falciparum [13]): 7.22

CCN(CC)CCCC(C)Nc1ccnc2cc(Cl)ccc12 (stereo not drawn) [CHLOROQUINE]
pIC50 [14]: 4.55

COc1cc(NC(C)CCCN)c2ncccc2c1 (stereo not drawn) [PRIMAQUINE]
pIC50 (Plasmodium falciparum [1]): 6.34 | pIC50 (Plasmodium falciparum [2]): 6.34 | pIC50 (Plasmodium falciparum [3]): 6.34
